Data taken from PubChem BioAssay AID1963428 (Molecular Pharmacology Branch, DTP, NCI, 2024).
Values joined by “and” are separate entries in the source; they are usually repeats but may differ in a detail not shown here. Equal values may be shown once.

System: 171881-019-R-J1-PDC complex spheroid growth, % test/control
Experiment: Anticancer human tumor 171881-019-R-J1-PDC patient-derived invasive breast carcinoma cell line growth inhibition [Asc]
Conditions: for viability, T/C: stronger effect = lower value; active means viability on the fitted dose curve at most 10% of control; inactive means the rest
Procedure, shortened: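 Spheroid model: tumor line + HUVEC + hMSC. Single agents and combinations; top conc. at/near clinical Cmax (10 microM if undetermined), half-log dilutions. DMSO stocks at 800-fold test concentration.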
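Wherever viability, T/C is given: spheroids exposed to compounds for 7 days.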

Cc1nc(N2CCC3(CC2)COC(C)C3N)c(CO)nc1Sc1ccnc(N)c1Cl (configuration not stated) + CNC(C)C(=O)NC1CN(S(=O)(=O)c2cccc(S(=O)(=O)N3CCC4CCC(C(=O)NC(c5ccccc5)c5ccccc5)N4C(=O)C(NC(=O)C(C)NC)C3)c2)CCC2CCC(C(=O)NC(c3ccccc3)c3ccccc3)N2C1=O
> 3000 nM: IC50 (curve of first compound, second compound 0.01 µM) | IC50 (curve of first compound, second compound 0.0316 µM) | IC50 (curve of first compound, second compound 0.1 µM) | IC50 (curve of first compound, second compound 0.316 µM) | IC50 (curve of first compound, second compound 1 µM)
inactive: viability, T/C (second compound 0.01 µM, first compound 0.00949 µM) 119% | viability, T/C (second compound 0.01 µM, first compound 0.03 µM) 132% | viability, T/C (second compound 0.01 µM, first compound 0.0949 µM) 192% | viability, T/C (second compound 0.01 µM, first compound 0.3 µM) 239% | viability, T/C (second compound 0.01 µM, first compound 0.949 µM) 205% | viability, T/C (second compound 0.01 µM, first compound 3 µM) 165% | viability, T/C (second compound 0.0316 µM, first compound 0.00949 µM) 116% | viability, T/C (second compound 0.0316 µM, first compound 0.03 µM) 163% | viability, T/C (second compound 0.0316 µM, first compound 0.0949 µM) 214% | viability, T/C (second compound 0.0316 µM, first compound 0.3 µM) 279% | viability, T/C (second compound 0.0316 µM, first compound 0.949 µM) 211% | viability, T/C (second compound 0.0316 µM, first compound 3 µM) 164% | viability, T/C (second compound 0.1 µM, first compound 0.00949 µM) 120% | viability, T/C (second compound 0.1 µM, first compound 0.03 µM) 147% | viability, T/C (second compound 0.1 µM, first compound 0.0949 µM) 196% | viability, T/C (second compound 0.1 µM, first compound 0.3 µM) 237% | viability, T/C (second compound 0.1 µM, first compound 0.949 µM) 175% | viability, T/C (second compound 0.1 µM, first compound 3 µM) 155% | viability, T/C (second compound 0.316 µM, first compound 0.00949 µM) 111% | viability, T/C (second compound 0.316 µM, first compound 0.03 µM) 140% | viability, T/C (second compound 0.316 µM, first compound 0.0949 µM) 203% | viability, T/C (second compound 0.316 µM, first compound 0.3 µM) 229% | viability, T/C (second compound 0.316 µM, first compound 0.949 µM) 181% | viability, T/C (second compound 0.316 µM, first compound 3 µM) 147% | viability, T/C (second compound 1 µM, first compound 0.00949 µM) 119% | viability, T/C (second compound 1 µM, first compound 0.03 µM) 148% | viability, T/C (second compound 1 µM, first compound 0.0949 µM) 183% | viability, T/C (second compound 1 µM, first compound 0.3 µM) 250% | viability, T/C (second compound 1 µM, first compound 0.949 µM) 171% | viability, T/C (second compound 1 µM, first compound 3 µM) 142%

O=C(c1ccc(F)c(F)c1Nc1ccc(I)cc1F)N1CC(O)([C@@H]2CCCCN2)C1
inactive: viability, T/C (compound 0.00316 µM) 86.7% and 86.1% and 88.1% | viability, T/C (compound 0.01 µM) 104% and 85.4% and 111% | viability, T/C (compound 0.0316 µM) 121% and 111% and 153% | viability, T/C (compound 0.1 µM) 150% and 136% and 218% | viability, T/C (compound 0.316 µM) 65.5% and 51.4% and 121% | viability, T/C (compound 1 µM) 32.6% and 32.5% and 58.2%
545 nM and 344 nM and > 1000 nM: IC50 (curve of compound)

COc1c(OCCCN2CCOCC2)ccc2c3n(c(=NC(=O)c4cnc(N)nc4)nc12)CCN3 + CCN1C(C(=O)NC23CCC(C(=O)O)(CC2)CC3)C(c2cccc(Cl)c2F)C2(C(=O)Nc3cc(Cl)ccc32)C12CCCCC2
inactive: viability, T/C (second compound 0.03 µM, first compound 0.00316 µM) 158% | viability, T/C (second compound 0.03 µM, first compound 0.01 µM) 118% | viability, T/C (second compound 0.03 µM, first compound 0.0316 µM) 48.1% | viability, T/C (second compound 0.03 µM, first compound 0.1 µM) 25.7% | viability, T/C (second compound 0.0949 µM, first compound 0.00316 µM) 182% | viability, T/C (second compound 0.0949 µM, first compound 0.01 µM) 141% | viability, T/C (second compound 0.0949 µM, first compound 0.0316 µM) 55% | viability, T/C (second compound 0.0949 µM, first compound 0.1 µM) 13.6% | viability, T/C (second compound 0.3 µM, first compound 0.00316 µM) 143% | viability, T/C (second compound 0.3 µM, first compound 0.01 µM) 133% | viability, T/C (second compound 0.3 µM, first compound 0.0316 µM) 53.8% | viability, T/C (second compound 0.949 µM, first compound 0.00316 µM) 159% | viability, T/C (second compound 0.949 µM, first compound 0.01 µM) 126% | viability, T/C (second compound 0.949 µM, first compound 0.0316 µM) 50.9% | viability, T/C (second compound 0.949 µM, first compound 0.1 µM) 12.8% | viability, T/C (second compound 3 µM, first compound 0.00316 µM) 171% | viability, T/C (second compound 3 µM, first compound 0.01 µM) 122% | viability, T/C (second compound 3 µM, first compound 0.0316 µM) 46.1% | viability, T/C (second compound 3 µM, first compound 0.1 µM) 9.69%
36.7 nM: IC50 (curve of first compound, second compound 0.0949 µM)
33.1 nM: IC50 (curve of first compound, second compound 0.949 µM)
29.7 nM: IC50 (curve of first compound, second compound 3 µM)
36.1 nM: IC50 (curve of first compound, second compound 0.3 µM)
active: viability, T/C (second compound 0.03 µM, first compound 0.316 µM) 3.58% | viability, T/C (second compound 0.03 µM, first compound 1 µM) 1.48% | viability, T/C (second compound 0.0949 µM, first compound 0.316 µM) 3.64% | viability, T/C (second compound 0.0949 µM, first compound 1 µM) 1.16% | viability, T/C (second compound 0.3 µM, first compound 0.1 µM) 14.6% | viability, T/C (second compound 0.3 µM, first compound 0.316 µM) 3.71% | viability, T/C (second compound 0.3 µM, first compound 1 µM) 0.99% | viability, T/C (second compound 0.949 µM, first compound 0.316 µM) 3.5% | viability, T/C (second compound 0.949 µM, first compound 1 µM) 1.21% | viability, T/C (second compound 3 µM, first compound 0.316 µM) 2.19% | viability, T/C (second compound 3 µM, first compound 1 µM) 1.28%
35.7 nM: IC50 (curve of first compound, second compound 0.03 µM)
